18 molecules from patent US9499538B2, “Estrogen receptor modulators and uses thereof” (Seragon Pharmaceuticals, Inc., priority 2012, dated 2016) can be followed below.

Experiment [1] concerns the target T1, ER-α in MCF-7 cells (Homo sapiens, UniProt P03372).
T1 construct: endogenous in cells; host or cells: MCF-7
T1 sequence (P03372 1-595): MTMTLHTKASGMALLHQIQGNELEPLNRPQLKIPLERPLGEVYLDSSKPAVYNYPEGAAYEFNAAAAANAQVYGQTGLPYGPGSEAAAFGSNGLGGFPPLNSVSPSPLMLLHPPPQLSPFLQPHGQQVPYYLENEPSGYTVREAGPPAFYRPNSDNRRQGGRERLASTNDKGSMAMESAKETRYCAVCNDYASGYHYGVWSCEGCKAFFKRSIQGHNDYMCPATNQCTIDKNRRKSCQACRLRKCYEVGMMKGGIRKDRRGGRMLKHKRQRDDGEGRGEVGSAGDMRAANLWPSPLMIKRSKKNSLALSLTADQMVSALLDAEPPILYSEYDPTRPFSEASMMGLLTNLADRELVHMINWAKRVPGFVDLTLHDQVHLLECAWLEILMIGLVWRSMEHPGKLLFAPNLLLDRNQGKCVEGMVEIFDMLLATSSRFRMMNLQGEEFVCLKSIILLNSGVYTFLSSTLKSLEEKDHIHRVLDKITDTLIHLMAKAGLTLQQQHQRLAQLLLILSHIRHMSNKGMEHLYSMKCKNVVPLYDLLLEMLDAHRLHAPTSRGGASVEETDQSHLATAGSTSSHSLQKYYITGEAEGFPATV
Kind of experiment: Breast Cancer Cell ER-α In Cell Western Assay (SP1). In kind it is cell-based. To be noted: 4 or 24 hr post compound addition; for Emax: MCF7, SP1 antibody, read-out: ER-α In Cell Western Assay (SP1) Max Response; for DC50: SP1 antibody, read-out: ER-α In Cell Western Assay (SP1) IC50. In short, it runs like this:
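MCF-7 cells in charcoal-stripped FBS medium, treated with 11-point semilog dilutions (0.3–0.000003 μM final) for 4 or 24 h. Fixed cells immunostained with SP1 antibody (800 nm) and DRAQ5 DNA (700 nm); ER/DNA ratio expressed as % of untreated cells.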

The test system of experiment [2] is MCF-7 cells. Kind of experiment: Breast Cancer Cell Viability Assays (MCF-7, CellTiter-Glo). Particulars: 5 days' compound exposure; for IC50: Homo sapiens, MCF7, 120 h. In kind it is cell-based. An outline of the steps:
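MCF-7 cells (320/well, RPMI with 10% FBS) exposed for 5 days to an eleven-point semilog series, 0.3–0.000003 μM final. Viability read by CellTiter-Glo luminescence, expressed as background-corrected percent of untreated cells.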
(In general: ATP-based viability assays read luminescence as a measure of living cells.)

With `N=C(N)/C=C/c1ccc(/C(=C(\c2ccccc2)C2CCC2)c2ccc3[nH]nc(F)c3c2)cc1` [Example 210], in experiment [1], the Emax was at least 40% and the DC50 is at most 100 nM. In experiment [2], the “MCF7 Viability Assay Max Response” value is reported as “++ (++ = a single % value ≧ 40%)” and the IC50 (usually the concentration that inhibits the measured activity by half) is at most 100 nM.
For the molecule `CC/C(=C(/c1ccc(/C=C/C(=O)O)cc1)c1ccc2[nH]ncc2c1)c1ccc(C(N)=O)cc1F` [Example 211, (E)-3-(4-((E)-2-(4-Carbamoyl-2-fluorophenyl)-1-(1H-indazol-5-yl)but-1-en-1-yl)phenyl)acrylic acid], in experiment [1], the Emax is at least 40% and the DC50 is above 100 nM. Further, in experiment [2], the “MCF7 Viability Assay Max Response” value was “+ (+ = a single % value < 40%)” and the concentration for half-maximal inhibition (IC50) was above 100 nM.
Regarding `O=C(O)/C=C/c1ccc(/C(=C(\c2ccc(F)cc2Cl)C2CCC2)c2coc3c(O)cccc23)cc1` [Example 212, (E)-3-(4-((E)-2-(2-Chloro-4-fluorophenyl)-2-cyclobutyl-1-(7-hydroxybenzofuran-3-yl)vinyl)phenyl)acrylic acid], in experiment [1], the Emax is at least 40% and the DC50 is at most 100 nM. Also, in experiment [2], the “MCF7 Viability Assay Max Response” value was “++ (++ = a single % value ≧ 40%)” and the IC50 was at most 100 nM.
As to `O=C(O)/C=C/c1ccc(/C(=C(\c2ccncc2Cl)C2CCC2)c2coc3c(O)cccc23)cc1` [Example 213, (E)-3-(4-((E)-2-(3-Chloropyridin-4-yl)-2-cyclobutyl-1-(7-hydroxybenzofuran-3-yl)vinyl)phenyl)acrylic acid], in experiment [1], the Emax is at least 40% and the DC50 was at most 100 nM. In experiment [2], the “MCF7 Viability Assay Max Response” value is listed as “++ (++ = a single % value ≧ 40%)” and the IC50 was at most 100 nM.
On to `O=C(O)/C=C/c1ccc(/C(=C(\c2ccnc(O)c2)C2CCC2)c2ccc3[nH]nc(F)c3c2)cc1` [Example 214, (E)-3-(4-((E)-2-Cyclobutyl-1-(3-fluoro-1H-indazol-5-yl)-2-(2-hydroxypyridin-4-yl)vinyl)phenyl)acrylic acid], for which, in experiment [1], the Emax is at least 40% and the DC50 was above 100 nM. Besides, in experiment [2], the “MCF7 Viability Assay Max Response” value is “+ (+ = a single % value < 40%)” and the IC50 was above 100 nM.
For the molecule `Fc1n[nH]c2ccc(/C(=C(/c3ccccc3)C3CCC3)c3ccc(/C=C/c4ccccn4)cc3)cc12` [Example 215], in experiment [1], the Emax is at least 40% and the DC50 was at most 100 nM. Besides, in experiment [2], the “MCF7 Viability Assay Max Response” value is given as “++ (++ = a single % value ≧ 40%)” and the IC50 is at most 100 nM.
With `COc1ccc(/C(=C(\c2ccc(/C=C/C(=O)O)cc2)c2ccc3[nH]ncc3c2)C2CCC2)c(Cl)c1` [Example 216, (E)-3-(4-((E)-2-(2-Chloro-4-methoxyphenyl)-2-cyclobutyl-1-(1H-indazol-5-yl)vinyl)phenyl)acrylic acid], in experiment [1], the Emax is at least 40% and the DC50 was at most 100 nM. In addition, in experiment [2], the “MCF7 Viability Assay Max Response” value is reported as “++ (++ = a single % value ≧ 40%)” and the IC50 is at most 100 nM.
As for `Cc1cc(CO)ccc1/C(=C(\c1ccc(/C=C/C(=O)O)cc1)c1ccc2[nH]nc(F)c2c1)C1CCC1` [Example 217, (E)-3-(4-((E)-2-Cyclobutyl-1-(3-fluoro-1H-indazol-5-yl)-2-(4-(hydroxymethyl)-2-methylphenyl)vinyl)phenyl)acrylic acid], in experiment [1], the Emax is at least 40% and the DC50 was at most 100 nM. For the same molecule, in experiment [2], the “MCF7 Viability Assay Max Response” value is “++ (++ = a single % value ≧ 40%)” and the IC50 is at most 100 nM.
Turning to `N#Cc1ccc(/C(=C(\c2ccc(/C=C/C(=O)O)cc2)c2ccc3scnc3c2)C2CCC2)c(Cl)c1` [Example 218, (E)-3-(4-((E)-1-(Benzo[d]thiazol-5-yl)-2-(2-chloro-4-cyanophenyl)-2-cyclobutylvinyl)phenyl)acrylic acid], in experiment [1], the Emax is at least 40% and the DC50 was at most 100 nM. In experiment [2], the “MCF7 Viability Assay Max Response” value is reported as “++ (++ = a single % value ≧ 40%)” and the half-inhibitory concentration (IC50) was at most 100 nM.
Consider `N#Cc1cc(Cl)ccc1/C(=C(\c1ccc(/C=C/C(=O)O)cc1)c1ccc2scnc2c1)C1CCC1` [Example 219, (E)-3-(4-((E)-1-(Benzo[d]thiazol-5-yl)-2-(4-chloro-2-cyanophenyl)-2-cyclobutylvinyl)phenyl)acrylic acid], for which, in experiment [1], the Emax was at least 40% and the DC50 is at most 100 nM. Besides, in experiment [2], the “MCF7 Viability Assay Max Response” value was “++ (++ = a single % value ≧ 40%)” and the IC50 was at most 100 nM.
For `O=C(O)/C=C/c1ccc(/C(=C(\c2ccc(Cl)cc2Cl)C2CCC2)c2ccc3nccn3c2)cc1` [Example 220, (E)-3-(4-((E)-2-Cyclobutyl-2-(2,4-dichlorophenyl)-1-(imidazo[1,2-a]pyridin-6-yl)vinyl)phenyl)acrylic acid], in experiment [1], the Emax was at least 40% and the DC50 is at most 100 nM. In experiment [2], the “MCF7 Viability Assay Max Response” value is recorded as “++ (++ = a single % value ≧ 40%)” and the IC50 is at most 100 nM.
For the molecule `O=C(O)/C=C/c1ccc(/C(=C(\c2ccc(F)cc2C(F)(F)F)C2CCC2)c2ccc3nccn3c2)cc1` [Example 221, (E)-3-(4-((E)-2-Cyclobutyl-2-(4-fluoro-2-(trifluoromethyl)phenyl)-1-(imidazo[1,2-a]pyridin-6-yl)vinyl)phenyl)acrylic acid], in experiment [1], the Emax is at least 40% and the DC50 was at most 100 nM. In experiment [2], the “MCF7 Viability Assay Max Response” value is “++ (++ = a single % value ≧ 40%)” and the IC50 was at most 100 nM.
For `N#Cc1c(/C(=C(/c2ccc(F)cc2Cl)C2CC2)c2ccc(/C=C/C(=O)O)cc2)ccc2[nH]nc(F)c12` [Example 222, (E)-3-(4-((E)-2-(2-Chloro-4-fluorophenyl)-1-(4-cyano-3-fluoro-1H-indazol-5-yl)-2-cyclopropylvinyl)phenyl)acrylic acid], in experiment [1], the Emax was at least 40% and the DC50 is at most 100 nM. Also, in experiment [2], the “MCF7 Viability Assay Max Response” value was “++ (++ = a single % value ≧ 40%)” and the IC50 was at most 100 nM.
For the molecule `O=C(O)/C=C/c1ccc(/C(=C(\c2ccc(Cl)cc2C(F)(F)F)C2CCC2)c2ccc3nccn3c2)cc1` [Example 223, (E)-3-(4-((E)-2-(4-Chloro-2-(trifluoromethyl)phenyl)-2-cyclobutyl-1-(imidazo[1,2-a]pyridin-6-yl)vinyl)phenyl)acrylic acid], in experiment [1], the Emax is at least 40% and the DC50 is at most 100 nM. In addition, in experiment [2], the “MCF7 Viability Assay Max Response” value was “++ (++ = a single % value ≧ 40%)” and the half-maximal inhibitory concentration (IC50) was at most 100 nM.
In the case of `N#Cc1c(/C(=C(/c2ccc(F)cc2Cl)C2CCC2)c2ccc(/C=C/C(=O)O)cc2)ccc2nccn12` [Example 224, (E)-3-(4-((E)-2-(2-Chloro-4-fluorophenyl)-1-(5-cyanoimidazo[1,2-a]pyridin-6-yl)-2-cyclobutylvinyl)phenyl)acrylic acid], in experiment [1], the Emax was at least 40% and the DC50 is at most 100 nM. Further, in experiment [2], the “MCF7 Viability Assay Max Response” value was “++ (++ = a single % value ≧ 40%)” and the IC50 is at most 100 nM.
In the case of `N#Cc1c(/C(=C(/c2ccc(F)cc2Cl)C2CCC2)c2ccc(/C=C/C(=O)O)cc2)ccc2[nH]nc(F)c12` [Example 225, (E)-3-(4-((E)-2-(2-Chloro-4-fluorophenyl)-1-(4-cyano-3-fluoro-1H-indazol-5-yl)-2-cyclobutylvinyl)phenyl)acrylic acid], in experiment [1], the Emax was at least 40% and the DC50 was at most 100 nM. In experiment [2], the “MCF7 Viability Assay Max Response” value is reported as “++ (++ = a single % value ≧ 40%)” and the IC50 was at most 100 nM.
Take `N#Cc1ccc(/C(=C(\c2ccc(/C=C/C(=O)O)cc2)c2ccc3nccn3c2)C2CCC2)c(Cl)c1` [Example 226, (E)-3-(4-((E)-2-(2-Chloro-4-cyanophenyl)-2-cyclobutyl-1-(imidazo[1,2-a]pyridin-6-yl)vinyl)phenyl)acrylic acid]: in experiment [1], the Emax is at least 40% and the DC50 was at most 100 nM. Moreover, in experiment [2], the “MCF7 Viability Assay Max Response” value is recorded as “++ (++ = a single % value ≧ 40%)” and the IC50 was at most 100 nM.
Turning to `N#Cc1cc(Cl)ccc1/C(=C(\c1ccc(/C=C/C(=O)O)cc1)c1ccc2nccn2c1)C1CCC1` [Example 227, (E)-3-(4-((E)-2-(4-Chloro-2-cyanophenyl)-2-cyclobutyl-1-(imidazo[1,2-a]pyridin-6-yl)vinyl)phenyl)acrylic acid], in experiment [1], the Emax was at least 40% and the DC50 is at most 100 nM. In experiment [2], the “MCF7 Viability Assay Max Response” value is listed as “++ (++ = a single % value ≧ 40%)” and the IC50 was at most 100 nM.
